The structures appear in SMILES notation. Where only a bound is given, the exact number is not on record here.

These results are taken from patent publication US9926297B2, “Bicyclic AZA compounds as muscarinic M1 receptor and/or M4 receptor agonists” (Heptares Therapeutics Limited, priority 2014, dated 2018).

The target of test [1] is human muscarinic M3 receptor (Homo sapiens, UniProt P20309). In words: Alphascreen Surefire phospho-ERK1/2 functional assay, M3. Particulars: for Emax: CHO, read-out: % Emax cf. ACh, M3, CHO cells stably expressing human M3; for EC50: pEC50 M3, CHO cells stably expressing human M3. On the technique in general: Bead proximity is the source of the signal in Alpha formats.
Sequence of human muscarinic M3 receptor (P20309 whole entry): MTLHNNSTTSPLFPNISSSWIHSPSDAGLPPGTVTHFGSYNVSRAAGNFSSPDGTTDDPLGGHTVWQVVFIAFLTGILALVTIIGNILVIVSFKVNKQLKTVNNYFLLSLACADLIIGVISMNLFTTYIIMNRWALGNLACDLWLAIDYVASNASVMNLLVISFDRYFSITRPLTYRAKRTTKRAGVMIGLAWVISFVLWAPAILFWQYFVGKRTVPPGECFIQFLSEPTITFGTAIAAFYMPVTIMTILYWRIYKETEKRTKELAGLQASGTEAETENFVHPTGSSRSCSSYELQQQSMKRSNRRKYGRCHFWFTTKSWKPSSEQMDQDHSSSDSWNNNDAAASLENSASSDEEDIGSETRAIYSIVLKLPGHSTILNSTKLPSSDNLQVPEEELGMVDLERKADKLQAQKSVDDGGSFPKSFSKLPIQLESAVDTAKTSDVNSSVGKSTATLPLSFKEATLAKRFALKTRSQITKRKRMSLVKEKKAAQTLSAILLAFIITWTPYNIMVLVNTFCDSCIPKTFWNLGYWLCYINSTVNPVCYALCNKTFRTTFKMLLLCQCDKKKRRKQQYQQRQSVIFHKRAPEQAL
Test [2] has as its target T1, human muscarinic M1 receptor (Homo sapiens, UniProt P11229).
T1 sequence (P11229 1-460): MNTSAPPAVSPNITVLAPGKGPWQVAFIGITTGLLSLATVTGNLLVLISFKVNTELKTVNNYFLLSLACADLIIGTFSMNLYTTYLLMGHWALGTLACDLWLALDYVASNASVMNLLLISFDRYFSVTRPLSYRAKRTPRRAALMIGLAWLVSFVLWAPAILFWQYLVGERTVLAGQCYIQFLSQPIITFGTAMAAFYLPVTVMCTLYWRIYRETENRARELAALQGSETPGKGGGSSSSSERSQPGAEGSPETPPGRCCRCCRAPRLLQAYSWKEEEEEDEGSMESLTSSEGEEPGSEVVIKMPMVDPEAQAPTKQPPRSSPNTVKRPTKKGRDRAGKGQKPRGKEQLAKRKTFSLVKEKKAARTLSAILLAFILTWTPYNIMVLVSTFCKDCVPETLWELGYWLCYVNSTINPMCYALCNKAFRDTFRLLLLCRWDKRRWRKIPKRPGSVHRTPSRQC
In words: Alphascreen Surefire phospho-ERK1/2 functional assay, M1. The format is cell-based. Particulars: for EC50: phospho-ERK1/2, * = variable results, read-out: pEC50 M1 (converted); for Emax: CHO, read-out: % Emax cf. ACh, M1, CHO cells stably expressing human M1.

Test [3] addresses T2, human muscarinic M2 receptor (Homo sapiens, UniProt P08172).
T2 sequence (P08172 1-466): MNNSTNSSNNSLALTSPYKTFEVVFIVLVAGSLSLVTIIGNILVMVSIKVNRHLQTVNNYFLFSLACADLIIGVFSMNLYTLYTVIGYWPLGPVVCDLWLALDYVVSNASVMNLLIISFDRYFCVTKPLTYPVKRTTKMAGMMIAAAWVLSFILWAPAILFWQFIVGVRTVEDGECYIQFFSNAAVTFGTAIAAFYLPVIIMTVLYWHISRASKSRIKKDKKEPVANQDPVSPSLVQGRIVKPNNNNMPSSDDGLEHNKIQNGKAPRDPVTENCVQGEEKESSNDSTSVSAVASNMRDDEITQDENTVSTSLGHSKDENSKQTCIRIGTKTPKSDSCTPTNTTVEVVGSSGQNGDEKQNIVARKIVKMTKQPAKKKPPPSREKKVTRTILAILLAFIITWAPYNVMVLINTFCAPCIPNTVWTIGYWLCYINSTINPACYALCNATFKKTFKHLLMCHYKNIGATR
Description: Alphascreen Surefire phospho-ERK1/2 functional assay, M2. The settings on record: for Emax: CHO, read-out: % Emax cf. ACh, M2, CHO cells stably expressing human M2.

The target in test [4] is T3, human muscarinic M4 receptor (Homo sapiens, UniProt P08173).
T3 construct: expressed in transfected cells
T3 sequence (P08173 1-479): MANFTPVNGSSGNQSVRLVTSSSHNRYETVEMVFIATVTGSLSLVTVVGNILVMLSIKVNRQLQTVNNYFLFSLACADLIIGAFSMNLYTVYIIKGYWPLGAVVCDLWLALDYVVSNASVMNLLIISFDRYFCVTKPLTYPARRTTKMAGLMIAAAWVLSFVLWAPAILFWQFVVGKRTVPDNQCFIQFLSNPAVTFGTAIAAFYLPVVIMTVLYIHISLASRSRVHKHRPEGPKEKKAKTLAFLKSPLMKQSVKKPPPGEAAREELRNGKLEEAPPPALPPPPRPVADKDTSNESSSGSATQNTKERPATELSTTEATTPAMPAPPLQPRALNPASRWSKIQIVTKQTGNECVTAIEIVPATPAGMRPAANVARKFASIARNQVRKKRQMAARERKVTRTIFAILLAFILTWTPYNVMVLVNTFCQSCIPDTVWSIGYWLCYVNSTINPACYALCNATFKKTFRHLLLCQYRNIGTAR
In words: Alphascreen Surefire phospho-ERK1/2 functional assay, M4. The format is cell-based. The settings on record: for EC50: phospho-ERK1/2, * = variable results, read-out: pEC50 M4 (converted); for Emax: CHO, read-out: % Emax cf. ACh, M4, CHO cells stably expressing human M4.

Where [5] appears, read: CHO cells stably expressing human M1.
The mark [6] stands for this setting: CHO cells stably expressing human M4.
Where [7] appears, read: phospho-ERK1/2, * = variable results.

On to `CCOC(=O)N1CCC2(CC(N3CCC(C4c5ccccc5CN4C(=O)NC)CC3)C2)C1` (single isomer, unassigned) [2-76 Isomer 2, ethyl 2-(4-(2-(methylcarbamoyl)-isoindolin-1-yl)piperidin-1-yl)-6-azaspiro[3.4]octane-6-carboxylate], for which the “pEC50 M3” value in test [1] (CHO cells stably expressing human M3, phospho-ERK1/2, * = variable results) is less than 4.7. Besides, the “% Emax cf. ACh, M3” value in test [1] (CHO cells stably expressing human M3, relative to ACh) came out at 14%. For the same compound, the EC50 was 0.0501 µM in test [2] (setting [5]) and 0.0126 µM in test [4] (setting [6]). Also, the “% Emax cf. ACh, M1” value in test [2] (CHO cells stably expressing human M1, relative to ACh) came out at 88%. Further, the “pEC50 M2” value in test [3] (CHO cells stably expressing human M2, phospho-ERK1/2, * = variable results) was less than 4.7. In test [3] (CHO cells stably expressing human M2, relative to ACh), the “% Emax cf. ACh, M2” value worked out at 16%. In addition, in test [4] (CHO cells stably expressing human M4, relative to ACh), the “% Emax cf. ACh, M4” value is 107%.
Usually Emax stands for the size of the effect at its maximum, as opposed to the concentration needed. Turning to `CCOC(=O)N1CCC2(CC(N3CCC([C@@H]4CCCN4c4ccccc4)CC3)C2)C1` (single isomer, unassigned) [2-77 Isomer 2], the Emax in test [1] (relative to ACh) was found to be 47%; in test [2] (relative to ACh), 51%; in test [3] (relative to ACh), 14%; in test [4] (relative to ACh), 105%. Besides, the EC50 was greater than 20 µM in test [1] (setting [7]), 0.251 µM in test [2] (setting [5]), greater than 20 µM in test [3] and 0.00631 µM in test [4] (setting [6]).
As for `COC(=O)N1CCC2(CC(N3CCC([C@@H]4CCCN4c4ccccn4)CC3)C2)C1` (single isomer, unassigned) [2-78 Isomer 2], the Emax was 5% in test [1] (relative to ACh), 11% in test [2] (relative to ACh), 27% in test [3] (relative to ACh) and 49% in test [4] (relative to ACh). Besides, the EC50 in test [1] (setting [7]) was greater than 20 µM; in test [2] (setting [5]), greater than 20 µM; in test [3] it was 12.6 µM; in test [4] (setting [6]) it was 0.126 µM.
Consider `CCOC(=O)N1CCC2(CC(N3CCC([C@@H]4CCCN4c4ccccn4)CC3)C2)C1` (single isomer, unassigned) [2-79 Isomer 2], for which the Emax was found to be 19% in test [1] (relative to ACh), 37% in test [2] (relative to ACh), 2% in test [3] (relative to ACh) and 70% in test [4] (relative to ACh). The EC50 in test [1] (setting [7]) was greater than 20 µM; in test [2] (setting [5]), 0.501 µM; in test [3] it was greater than 20 µM; in test [4] (setting [6]), 0.0316 µM.
For the compound `CCOC(=O)N1CCC2(CC(N3CCC([C@@H]4CCCN4c4ccncc4)CC3)C2)C1` (single isomer, unassigned) [2-80 Isomer 2], the Emax in test [1] (relative to ACh) stood at 18%; in test [2] (relative to ACh), 98%; in test [3] (relative to ACh) it was 16%; in test [4] (relative to ACh) it was 107%. Moreover, the EC50 in test [1] (setting [7]) is greater than 20 µM; in test [2] (setting [5]), 0.126 µM; in test [3], greater than 20 µM; in test [4] (setting [6]), 0.02 µM.
Take `CCOC(=O)N1CCC2(CC(N3CCC([C@@H]4CCCN4c4nccs4)CC3)C2)C1` (single isomer, unassigned) [2-82 Isomer 2]: the Emax in test [1] (relative to ACh) was 0%; in test [2] (relative to ACh), 52%; in test [3] (relative to ACh) it was 1%; in test [4] (relative to ACh), 70%. In addition, the EC50 in test [1] (setting [7]) is greater than 20 µM; in test [2] (setting [5]) it was 0.501 µM; in test [3], greater than 20 µM; in test [4] (setting [6]), 0.02 µM.
Turning to `CCOC(=O)N1CCC2(CC(N3CCC(N4CCC[C@@H]4C(=O)OC)CC3)C2)C1` (single isomer, unassigned) [2-84 Isomer 2], the EC50 in test [1] (setting [7]) is greater than 20 µM; in test [2] (setting [5]) it was 0.251 µM; in test [3] it was greater than 20 µM; in test [4] (setting [6]) it was 0.02 µM. For the same compound, the Emax in test [2] (relative to ACh) stood at 36%; in test [4] (relative to ACh), 82%.
Regarding `CCOC(=O)N1CCC2(CC(N3CCC(N4CC(F)(F)C[C@@H]4C(=O)OC)CC3)C2)C1` (single isomer, unassigned) [2-87 Isomer 2], the Emax came to 3% in test [1] (relative to ACh), 46% in test [2] (relative to ACh), 54% in test [3] (relative to ACh) and 100% in test [4] (relative to ACh). Also, the EC50 in test [1] (setting [7]) was greater than 20 µM; in test [2] (setting [5]), 0.398 µM; in test [3], greater than 20 µM; in test [4] (setting [6]), 0.0158 µM.
On to `CCOC(=O)N1CCC2(CC(N3CCC(N4CC(F)(F)C[C@@H]4C(=O)NC)CC3)C2)C1` (single isomer, unassigned) [2-88 Isomer 2], for which the Emax turned out to be 5% in test [1] (relative to ACh), 25% in test [2] (relative to ACh), 80% in test [3] (relative to ACh) and 44% in test [4] (relative to ACh). The EC50 in test [1] (setting [7]) was greater than 20 µM; in test [2] (setting [5]), 0.316 µM; in test [3], greater than 20 µM; in test [4] (setting [6]), 0.0398 µM.
Consider `CCOC(=O)N1CCC2(CC(N3CCC(N4CC(F)(F)C[C@@H]4C(=O)N(C)C)CC3)C2)C1` (single isomer, unassigned) [2-89 Isomer 2], for which the Emax in test [1] (relative to ACh) came to 8%; in test [2] (relative to ACh) it was 37%; in test [3] (relative to ACh), 68%; in test [4] (relative to ACh), 102%. Further, the EC50 in test [1] (setting [7]) is greater than 20 µM; in test [2] (setting [5]), 6.31 µM; in test [3], greater than 20 µM; in test [4] (setting [6]), 0.2 µM.
As for `CCOC(=O)N1CCC2(CC(N3CCC(N4CC(F)(F)C[C@@H]4C(N)=O)CC3)C2)C1` (single isomer, unassigned) [2-90 Isomer 2], the Emax is 1% in test [1] (relative to ACh), 54% in test [2] (relative to ACh), 4% in test [3] (relative to ACh) and 53% in test [4] (relative to ACh). Further, the EC50 was greater than 20 µM in test [1] (setting [7]), 0.158 µM in test [2] (setting [5]), greater than 20 µM in test [3] and 0.0126 µM in test [4] (setting [6]).
Regarding `CCOC(=O)N1CCC2(CC(N3CCC(N4CC(F)(F)C[C@@H]4C(=O)NOC)CC3)C2)C1` (single isomer, unassigned) [2-91 Isomer 2], the Emax in test [1] (relative to ACh) was 10%; in test [2] (relative to ACh) it was 40%; in test [3] (relative to ACh) it was 12%; in test [4] (relative to ACh) it was 67%. Further, the EC50 in test [1] (setting [7]) is greater than 20 µM; in test [2] (setting [5]), 0.501 µM; in test [3], greater than 20 µM; in test [4] (setting [6]) it was 0.0794 µM.
Regarding `CCOC(=O)N1CCC2(CC(N3CCC(N4CC(F)(F)C[C@@H]4C(=O)N(C)OC)CC3)C2)C1` (single isomer, unassigned) [2-92 Isomer 2], the Emax in test [1] (relative to ACh) came out at 5%; in test [2] (relative to ACh), 50%; in test [3] (relative to ACh), 2%; in test [4] (relative to ACh), 82%. Further, the EC50 was greater than 20 µM in test [1] (setting [7]), 3.16 µM in test [2] (setting [5]), greater than 20 µM in test [3] and 0.0316 µM in test [4] (setting [6]).
On to `CCOC(=O)N1CCC2(CC(N3CCC(N4CCC[C@]4(C)C(=O)OC)CC3)C2)C1` (single isomer, unassigned) [2-95 Isomer 2], for which the Emax came to 9% in test [1] (relative to ACh), 19% in test [2] (relative to ACh), 16% in test [3] (relative to ACh) and 49% in test [4] (relative to ACh). Further, the EC50 in test [1] (setting [7]) was greater than 20 µM; in test [2] (setting [5]) it was greater than 20 µM; in test [3], greater than 20 µM; in test [4] (setting [6]), 0.0631 µM.
